Test results taken from patent publication US6277867A, “Pesticide compounds, compositions and process for the preparation thereof” (priority 1995, dated 2001).

Legend:
[1] = test system: house fly (Musca domestica); conditions: in vivo, topical_or_ocular, 1440 min
Protocol: Investigation of Synergistic Activity on House Fly (Musca domestica) Following Topical Application
In two parallel experiments 10 female. 2-4 day old house flies were treated on the vental side of their thorax with 0.2 μl of the test solution, with the help of Hamilton MicroLab P microdispenser. Beside fixed synergist dose of 1000 ng/fly the animals were treated with carbofuran at a dose of 20 ng/fly. For solvent cellosolve was used. Selection and counting of the flies were performed under the action of CO2. After treatment the flies were kept in plastic cups covered with tulle. Mortality after 24 hours was expressed in %.

[2] = test system: house fly (Musca domestica); assay: Effect on fecundity, on house fly; format: in vivo; conditions: 500 ppm in granulated sugar, 48 hours feeding; eggs of next 10 days
Protocol: Investigation of the Effect on Fecundity, on House Fly (Musca domestica)
Groups consisting of freshly hatched 50 male and 50 female flies were fed during 48 hours with granulated sugar comprising 500 ppm of material No. 441 and 484 of the present invention respectively, and the eggs layed on the next 10 days were raised. The fecundity-hindering effect was expressed as the quotient of the emerged flies in the treated and untreated groups. The experiments were performed in 4 replica.

[3] = test system: cotton bollworm (Helicoverpa armigera); assay: Synergistic activity on cotton bollworm following topical application; conditions: in vivo
Protocol: Investigation of Synergistic Activity on Cotton Bollworm (Helicoverpa armigera) Following Topical Application
Treatment was performed similarity as described in Example 1. but L2 stadium grubs of cotton bollworms (Helicoverpa armigera) were treated as test animals. From the 24 hour dose--mortality data the LD50 (ng/grub) values were determined using probit analysis. None of the synergists acted at the applied 1000 ng/grub dose. Synergist ratio was calculated as the quotient of the LD50 values of carbofuran administered alone, and with the synergist. The experiments were performed in 2-4 replica.

[4] = test system: house fly (Musca domestica); assay: Effect of the active ingredient:synergist ratio on the synergistic activity (flies)
Protocol: Effect of the Active Ingredient:Synergist Ratio on the Synergistic Activity
Treatment was performed as described in Example 1. using Hamilton MicroLab P microdispenser. In two parallel experiments 10 female -3 day old flies were treated on the ventral side of their thorax with 0.2 μl test solution. Beside 1000-400-200-80 ng/fly fixed doses of the synergist they were treated with constant 20 ng/fly CARBOFURAN®. Selection and counting of the flies were performed under the action of CO2. After treatment the flies were kept in plastic cups covered with tulle. After 24 hours mortality % was recorded. Depending on the results the experiments were performed in 2-4 replica.

[5] = test system: flies; assay: Comparative investigations with known reference synergists on flies treated with carbofuran; format: in vivo; conditions: flies treated with carbofuran and 1000 ng of the synergist
Excerpt: These SR50 ratios were compared to those of the new compounds prepared by us.

[6] = test system: mammals; conditions: cited from earlier work

SMILES | mortality % [1] | Hindering effect on fecundity [2] | Synergist ratio [3] | 24 hour mortality (%) ([4]; carbofuran 20 ng/fly + synergist 80 ng/fly) | 24 hour mortality (%) ([4]; carbofuran 20 ng/fly + synergist 200 ng/fly) | 24 hour mortality (%) ([4]; carbofuran 20 ng/fly + synergist 400 ng/fly) | 24 hour mortality (%) ([4]; house fly, in vivo, topical_or_ocular) | Synergist ratio SR50 [5] | tumor provoking effect [6]
CC#CCOCc1ccc2c(c1)OCO2 [Compound 441, 5-[(But-2-ynyloxy)-methyl]-1,3-benzodioxole] | 97% | 87% | > 5 | 62% | 67% | 90% | 95% | 25.70 | –
CCCCOCCOCCOCc1cc2c(cc1CCC)OCO2 [PBO] | – | – | – | – | – | – | – | – | suspected tumor provoking effect
